Measurements as given in US11927585B2, “Solvent-based inks and coatings for food contact applications” (SUN CHEMICAL CORPORATION, priority 2020, dated 2024).
Structures can show the parent of a compound that is named as a salt. Where two headings read alike, the source gives them in different places. Blank lines part the entries; values can stand above or below the compound they belong to.

Columns and labels:
[1] = cited from earlier work; for SML or Restriction (mg substance/kg food): source PR (EU Plastics Regulation No. 10/2011) or SO (Swiss Ordinance), EU Cube model
[2] = Worst-case calculation (100% migration), standard EU Cube exposure model; settings: for Worst Case Calculation of migration in EU Cube model: Basis for Safety outcome: volatile substance; for Worst-case calculation as a percentage of SML (or restriction), EU Cube / Worst Case Calculation of migration in EU Cube model (as a percentage of SML): 100% migration; for Worst-case calculation as a percentage of SML (or restriction), EU Cube: 2.0 g/m^2 dry film; for Worst Case Calculation of migration in EU Cube model (as a percentage of SML): dry coat weight 2.0 g/m^2
[3] = Worst-case calculation, Application 2 cheese packaging wrap exposure scenario; settings: 100% migration, 2.0 g/m^2 dry film
[4] = Worst-case calculation, Application 1 yoghurt pot lid exposure scenario; settings: 100% migration, 2.0 g/m^2 dry film
[5] = Specific migration limit (SML) from regulation or hazard assessment (TTC, VEGA QSAR, Cramer Class); settings: source HA (internal hazard assessment), self-derived SML; EU Cube model
[6] = Source of SML or restriction: SO (Swiss Ordinance)
[7] = source of SML or restriction: SO (Swiss Ordinance)
[8] = substance in ink SBDEV976 (Ex. 4C Cyan)
[9] = substance in ink SBDEV977 (Ex. 4A Yellow)
[10] = substance in ink SBDEV979 (Ex. 4D Black)
[11] = substance in ink SBDEV980 (Ex. 4B Red)

SMILES: CCCOC(C)=O [Acetic acid, propyl ester]
SML (or restriction) [1, 6]: 60 mg substance/kg food
SML (or restriction) [1, 7]: 60 mg substance/kg food

SMILES: CCCOC(C)=O [0000109-60-4, Acetic acid, propyl ester]
Worst Case Calculation of migration in EU Cube model: Basis for Safety outcome [2, 8]: Converter
Worst Case Calculation of migration in EU Cube model: Basis for Safety outcome [2, 9]: Converter
Worst Case Calculation of migration in EU Cube model: Basis for Safety outcome [2, 10]: Converter
Worst Case Calculation of migration in EU Cube model: Basis for Safety outcome [2, 11]: Converter
SML or Restriction (mg substance/kg food) [1]: 60 mg substance/kg food

SMILES: CCCCOC(=O)CC(O)(CC(=O)OCCCC)C(=O)OCCCC [Tributyl citrate]
SML (or restriction) [1, 6]: 0.05 mg substance/kg food
SML (or restriction) [1, 7]: 0.05 mg substance/kg food

SMILES: CCO [0000064-17-5, ethanol]
Worst Case Calculation of migration in EU Cube model: Basis for Safety outcome [2, 8]: Converter
Worst Case Calculation of migration in EU Cube model: Basis for Safety outcome [2, 9]: Converter
Worst Case Calculation of migration in EU Cube model: Basis for Safety outcome [2, 10]: Converter
Worst Case Calculation of migration in EU Cube model: Basis for Safety outcome [2, 11]: Converter
SML or Restriction (mg substance/kg food) [1]: 60 mg substance/kg food

Worst-case calculation as a percentage of SML (or restriction), Application 2 ([3]; product SBDEV976): 23.0 percentage of SML (or restriction)
Worst-case calculation as a percentage of SML (or restriction), Application 2 ([3]; product SBDEV977): 21.6 percentage of SML (or restriction)
Worst-case calculation as a percentage of SML (or restriction), Application 2 ([3]; product SBDEV979): 21.6 percentage of SML (or restriction)
Worst-case calculation as a percentage of SML (or restriction), Application 2 ([3]; product SBDEV980): 23.0 percentage of SML (or restriction)
Worst-case calculation as a percentage of SML (or restriction), Application 2 ([3]; product SBDEV1284): 15.8 percentage of SML (or restriction)
Worst-case calculation as a percentage of SML (or restriction), Application 2 ([3]; product SBDEV1285): 17.3 percentage of SML (or restriction)
Worst-case calculation as a percentage of SML (or restriction), Application 2 ([3]; product SBDEV1286): 17.3 percentage of SML (or restriction)
Worst-case calculation as a percentage of SML (or restriction), Application 2 ([3]; product SBDEV1287): 15.8 percentage of SML (or restriction)
Worst-case calculation as a percentage of SML (or restriction), Application 1 ([4]; product SBDEV976): 6.3 percentage of SML (or restriction)
Worst-case calculation as a percentage of SML (or restriction), Application 1 ([4]; product SBDEV977): 5.9 percentage of SML (or restriction)
Worst-case calculation as a percentage of SML (or restriction), Application 1 ([4]; product SBDEV979): 5.9 percentage of SML (or restriction)
Worst-case calculation as a percentage of SML (or restriction), Application 1 ([4]; product SBDEV980): 6.3 percentage of SML (or restriction)
Worst-case calculation as a percentage of SML (or restriction), Application 1 ([4]; product SBDEV1284): 4.3 percentage of SML (or restriction)
Worst-case calculation as a percentage of SML (or restriction), Application 1 ([4]; product SBDEV1285): 4.7 percentage of SML (or restriction)
Worst-case calculation as a percentage of SML (or restriction), Application 1 ([4]; product SBDEV1286): 4.7 percentage of SML (or restriction)
Worst-case calculation as a percentage of SML (or restriction), Application 1 ([4]; product SBDEV1287): 4.3 percentage of SML (or restriction)
Worst-case calculation as a percentage of SML (or restriction), EU Cube ([2]; product SBDEV976): 16 percentage of SML (or restriction)
Worst-case calculation as a percentage of SML (or restriction), EU Cube ([2]; product SBDEV977): 15 percentage of SML (or restriction)
Worst-case calculation as a percentage of SML (or restriction), EU Cube ([2]; product SBDEV979): 15 percentage of SML (or restriction)
Worst-case calculation as a percentage of SML (or restriction), EU Cube ([2]; product SBDEV980): 16 percentage of SML (or restriction)
Worst-case calculation as a percentage of SML (or restriction), EU Cube ([2]; product SBDEV1284): 11 percentage of SML (or restriction)
Worst-case calculation as a percentage of SML (or restriction), EU Cube ([2]; product SBDEV1285): 12 percentage of SML (or restriction)
Worst-case calculation as a percentage of SML (or restriction), EU Cube ([2]; product SBDEV1286): 12 percentage of SML (or restriction)
Worst-case calculation as a percentage of SML (or restriction), EU Cube ([2]; product SBDEV1287): 11 percentage of SML (or restriction)
Worst Case Calculation of migration in EU Cube model (as a percentage of SML) [2, 8]: 16 percentage of SML
Worst Case Calculation of migration in EU Cube model (as a percentage of SML) [2, 9]: 15 percentage of SML
Worst Case Calculation of migration in EU Cube model (as a percentage of SML) [2, 10]: 15 percentage of SML
Worst Case Calculation of migration in EU Cube model (as a percentage of SML) [2, 11]: 16 percentage of SML
SML or Restriction (mg substance/kg food) [5]: 4.98 mg substance/kg food
SMILES: O=C1NCCN1 [0000120-93-4, 2-Imidazolidinone]
